Measurements as given in patent US12653817B2, “Pharmaceutical composition comprising protein kinase inhibitor and chemotherapeutic drug and use thereof” (SHENZHEN CHIPSCREEN BIOSCIENCES CO., LTD., priority 2020, dated 2026).
“Also recorded” adds a separate entry of the source.

Assays:
[1] = test system: relapsed and refractory ovarian cancer; assay: Phase Ib single-arm clinical trial of chiauranib capsules, efficacy; format: in vivo, human
From the text: A single-arm, multi-center, non-randomized, open-label phase Ib trial.
Main inclusion criteria: Patients with histologically diagnosed epithelial ovarian cancer, fallopian tube cancer or primary peritoneal carcinoma; patients who had received platinum-based chemotherapy regimens, and platinum-resistant patients who achieved progressive or relapsed disease after had received ≥2 different chemotherapy regimens; platinum-sensitive patients who achieved progressive or relapsed disease after had received ≥2 different chemotherapy regimens, or who refused to receive further chemotherapy.
(§1) Medication regimen: 50 mg of chiauranib was taken orally every morning on an empty stomach, once a day, every 28 days as a treatment cycle, and there was no drug withdrawal interval between the treatment cycles. The treatment was continued until any of the following conditions occurred (whichever occurred first): progressive disease, intolerable toxicity reaction, death, withdrawal of informed consent, or loss to follow-up.
Efficacy indicators: The efficacy indicators were evaluated by investigators and imaging experts according to RECIST1.1 criteria.
Main: Objective response rate (ORR).
Secondary: Progression-free survival (PFS), time to progression (TTP), 16-week disease control rate (16W-DCR), duration of response (DOR) of disease, overall survival (OS).
Twenty-five patients with relapsed and refractory ovarian cancer were enrolled in the study, and the number of previous treatment regimens they had received was ≥3. 3 cases (12.0%) were sensitive to the last platinum-containing chemotherapy, and 22 cases (88.0%) were refractory or resistant to the last platinum-containing chemotherapy. As of the cut-off date for trial data (Mar. 20, 2019), 16 patients (64.0%) discontinued the treatment due to progressive disease, 3 patients (12.0%) discontinued the treatment due to adverse events, and other reasons for the discontinuation of the treatment comprised voluntary withdrawal of subjects, end of trial and loss to follow-up.
The full analysis set (FAS) and safety data set (SS) were used for analysis, and 25 subjects were included in each data set.

[2] = Phase Ib single-arm clinical trial of chiauranib capsules, safety evaluation; format: in vivo
Description: as §1
The safety indicators comprised adverse events, vital signs, ECG and abnormal laboratory results, which were evaluated according to CTCAE V4.03. Twenty-five patients with relapsed and refractory ovarian cancer were enrolled in the study and included in the safety data set (SS) for analysis.

[3] = test system: platinum-refractory/resistant relapsed advanced ovarian cancer; conditions: historical data; cited from earlier work
[4] = 25 patients, cut-off Mar. 20, 2019
[5] = chiauranib 50 mg orally once a day, N = 25, cut-off Mar. 20, 2019
[6] = increase in serum creatine phosphokinase MB, 25 subjects

With `COc1ccc2c(Oc3ccc4c(C(=O)Nc5ccccc5N)cccc4c3)ccnc2c1` [chiauranib, N-(2-aminophenyl)-6-(7-methoxyquinoline-4-oxy)-1-naphthamide] the “Discontinued the treatment due to progressive disease, %” value [1, 4] was 64.0%, the “Discontinued the treatment due to progressive disease, patients” value [1, 4] was 16 patients and the “Duration of response, Event” value ([1]; N = 25, cut-off Mar. 20, 2019) was 0. For the same compound, the “Overall survival, Event” value ([1]; N = 25, cut-off Mar. 20, 2019) was 11, the “Progression-free survival, Event (progressive disease or death)” value ([1]; N = 25, cut-off Mar. 20, 2019) was 12 and the “Time to progression, Event” value ([1]; N = 25, cut-off Mar. 20, 2019) was 11. For the same compound, the “16-week disease control rate” value ([1]; chiauranib 50 mg orally once a day, N = 25) was 32.0%, the Objective response rate ([1]; chiauranib 50 mg orally once a day, N = 25, RECIST1.1) was 4.0% and the “Progression-free survival, median” value [1, 5] was 3.7 month. The “Time to progression, median” value [1, 5] was 3.7 month, the “Efficacy conclusion, single-agent” value ([1]; subjects with platinum-refractory/resistant relapsed ovarian cancer who had received multiple chemotherapies) was “shown preliminary efficacy in tumor response; also recorded: showed primary efficacy of tumor response” and the “Abdominal pain, %” value ([2]; 25 subjects) was 52.0%. For the same compound, the “Abdominal pain, cases” value ([2]; 25 subjects) was 13 cases, the “Adverse event leading to the discontinuation of the treatment, %” value ([2]; 25 subjects) was 12.0% and the “Adverse event leading to the discontinuation of the treatment, patients” value ([2]; 25 subjects) was 3 patients. For the same compound, the “Adverse event leading to the suspension of chiauranib, %” value ([2]; 25 subjects) was 40.7%, the “Adverse event leading to the suspension of chiauranib, patients” value ([2]; 25 subjects) was 11 patients and the “At least one common adverse event, %” value ([2]; 25 subjects) was 100%. The “At least one common adverse event, subjects” value ([2]; 25 subjects) was 25 subjects, the “Diarrhea, %” value ([2]; 25 subjects) was 72.0% and the “Diarrhea, cases” value ([2]; 25 subjects) was 18 cases. For the same compound, the “Discontinuation due to bile duct obstruction” value ([2]; 25 subjects) was “dysfunction syndrome, 1 case of bile duct”, the “Discontinuation due to electrolyte disturbance” value ([2]; 25 subjects) was “obstruction, and 1 case of electrolyte” and the “Fatigue, %” value ([2]; 25 subjects) was 64.0%. For the same compound, the “Fatigue, cases” value ([2]; 25 subjects) was 16 cases, the “Hypertension, %” value ([2]; 25 subjects) was 44.0% and the “Hypertension, cases” value ([2]; 25 subjects) was 11 cases. For the same compound, the “Loss of appetite, %” value ([2]; 25 subjects) was 64.0%, the “Loss of appetite, cases” value ([2]; 25 subjects) was 16 cases and the “Proteinuria, %” value ([2]; 25 subjects) was 60.0%. For the same compound, the “Proteinuria, cases” value ([2]; 25 subjects) was 15 cases, the “Related serious adverse event: hypokalemia” value ([2]; 25 subjects) was “electrolyte disturbance, 1 case of hypokalemia,” and the “Serious adverse events judged to be related to chiauranib (definitely related, possibly related, undetermined), cases” value ([2]; 25 subjects) was 5 cases. For the same compound, the “Suspension due to decreased appetite” value ([2]; 25 subjects) was “ventricular dysfunction, 1 case of infection, 1”, the “Suspension due to increased alanine aminotransferase” value ([2]; 25 subjects) was 1 case and the “Suspension due to infection” value ([2]; 25 subjects) was “ventricular dysfunction, 1 case of infection, 1”. For the same compound, the “Suspension due to proteinuria” value ([2]; 25 subjects) was 2 cases, the “Weight loss, %” value ([2]; 25 subjects) was 56.0% and the “Weight loss, cases” value ([2]; 25 subjects) was 14 cases. The “Serious adverse events, % of patients” value ([2]; 25 subjects, CTCAE V4.03) was 32.0%, the “Serious adverse events, cases” value ([2]; 25 subjects, CTCAE V4.03) was 9 cases and the “Serious adverse events, patients” value ([2]; 25 subjects, CTCAE V4.03) was 8 patients. The “Adverse event leading to the reduction of the dosage of chiauranib, %” value [2, 6] was 4.0%, the “Adverse event leading to the reduction of the dosage of chiauranib, patients” value [2, 6] was “One” and the “Adverse event leading to death, %” value ([2]; multiple organ dysfunction syndrome, 25 subjects) was 4.0%. The “Adverse event leading to death, patients” value ([2]; multiple organ dysfunction syndrome, relation to chiauranib undetermined, 25 subjects) was “One” and the “Tolerability of single-agent therapy” value ([2]; toxicity characteristics similar to VEGFR target drugs) was “can be tolerated by most subjects”.

In the case of `COc1cc([C@@H]2c3cc4c(cc3[C@@H](O[C@@H]3O[C@@H]5CO[C@@H](C)O[C@H]5[C@H](O)[C@H]3O)[C@H]3COC(=O)[C@H]23)OCO4)cc(OC)c1O` [etoposide], the “Response rate of single-agent” value [3] is listed as “about 27%”.

In the case of `CC(=O)O[C@H]1C(=O)[C@@]2(C)[C@H]([C@H](OC(=O)c3ccccc3)[C@]3(O)C[C@H](OC(=O)[C@H](O)[C@@H](NC(=O)c4ccccc4)c4ccccc4)C(C)=C1C3(C)C)[C@]1(OC(C)=O)CO[C@@H]1C[C@@H]2O` [paclitaxel], the “Response rate of single-agent” value [3] is listed as “about 21%”.
